Data from patent US7326407B2, “Amine, amide, sulphonamide and carbamate derivatives of benzalmalonic salts and photoprotective cosmetic compositions comprised thereof” (L'Oreal, priority 2003, dated 2008).
Where a name gives a salt, the structure may show the parent alone.

Test: UV absorption spectrum in water
Type: physicochemical
Details: for UV E1% / UV εmax: at λmax

Molecule	UV λmax [nm]	UV E1%	UV εmax [L/mol/cm]
Nc1ccc(C=C(C(=O)O)C(=O)O)cc1 [Example 3, dipotassium salt of 2-(4-aminobenzylidene)malonic acid]	306	496	14000
Nc1ccc(C=C(C(=O)O)C(=O)O)cc1 [Example 1, dipiperidinium salt of 2-(4-aminobenzylidene)malonic acid]	305	446	16800
dipotassium salt of 2-(4-laurylamidobenzylidene)malonic acid [Example 5]	292	422	14000
CC(=O)Nc1ccc(C=C(C(=O)O)C(=O)O)cc1 [Example 4, dipotassium salt of 2-(4-acetamidobenzylidene)malonic acid]	292	498	16200
Nc1ccc(C=C(C(=O)O)C(=O)O)cc1 [Example 2, disodium salt of 2-(4-aminobenzylidene)malonic acid]	305	670	16800
